SMILES strings stand for the structures.

For one assay, the target named is T1, HCMV No protease (Human cytomegalovirus, UniProt P16753).
T1 construct: at a position located near the center of the precursor (R-site) to excise the catalytic domain (No)
T1 sequence (P16753 1-256): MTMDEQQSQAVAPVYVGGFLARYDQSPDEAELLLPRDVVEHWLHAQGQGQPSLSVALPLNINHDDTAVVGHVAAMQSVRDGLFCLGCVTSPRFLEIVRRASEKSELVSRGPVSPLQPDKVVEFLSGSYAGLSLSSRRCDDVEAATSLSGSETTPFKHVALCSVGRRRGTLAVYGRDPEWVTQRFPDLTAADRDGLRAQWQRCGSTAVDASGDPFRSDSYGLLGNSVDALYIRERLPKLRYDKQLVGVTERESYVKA
Briefly: biochemical. The note with it: inhibitor pre-incubated 5 hr at 30° C. with enzyme, fluorogenic substrate; read-out: IC50. How it is done: HCMV No protease assay: HCMV No protease was assayed with an internally quenched fluorogenic substrate based on the maturation cleavage site (Abz-[…](3-NO2)R-OH, kcat /KM =260 M^-1 s^-1) . […] A protocol adaptable to a 96-well plate format was designed for the determination of IC50 values of inhibitors. […] After this period, enzymatic hydrolysis was initiated by addition of the fluorogenic substrate and the reaction was performed for 2 hr at 30° C. […] No quenching was required before fluorescence measurement since the total scanning time by the plate reader accessory was brief relative to the duration of the reaction. The incubation buffer (essentially similar to the pre-incubation buffer) contained 50 mM Tris/HCl pH 8, 0.5M Na2 SO4, 50 mM NaCl, 0.1 mM EDTA, 1 mM TCEP, 3% v/v DMSO and 0.05% w/v Casein. The final concentrations of HCMV N, protease (expressed in terms of total monomer concentration) and substrate were 100 nM and 5 μM respectively. IC50 values were obtained through fitting of the inhibition curve to a competitive inhibition model using SAS NLIN procedure. The mode of inhibition was determined by measurements of the initial rates (in cuvettes) at various substrate (Abz-Tbg-Tbg-Asn(Me)2 -Ala-SSRLY(3-NO2)R-OH) and inhibitor concentrations using the same conditions as above.
Usually IC50 stands for the concentration needed to halve the response being measured. In the case of `CC(NC(=O)[C@H](CC(=O)N(C)C)NC(=O)[C@@H](NC(=O)[C@@H](NC(=O)OC(C)(C)C)C(C)C)C(C)C)C(=O)C(=O)NCC(C)(C)C` (stereo partly shown) [Compound 402], the IC50 came out at 4300 nM.

For `CC(NC(=O)[C@H](CC(=O)N(C)C)NC(=O)[C@@H](NC(=O)CC(C)(C)C)C(C)(C)C)C(=O)C(=O)N[C@H](C)c1cccc2ccccc12` (stereo partly shown) [Compound 407], the IC50 stood at 200 nM.

With `CC(NC(=O)[C@H](CC(=O)N1CCCC1)NC(=O)[C@@H](NC(=O)CC(C)(C)C)C(C)(C)C)C(=O)C(=O)NCc1ccc(I)cc1` (stereo partly shown) [Compound 98], the IC50 stood at 340 nM.

For `CC(NC(=O)[C@H](CC(=O)N(C)C)NC(=O)[C@@H](NC(=O)[C@@H](NC(=O)OC(C)(C)C)C(C)C)C(C)C)C(=O)C(=O)NC1CCCCC1` (stereo partly shown) [Compound 411], the IC50 was determined as 1800 nM.

As for `CC(NC(=O)[C@H](CC(=O)N(C)C)NC(=O)[C@@H](NC(=O)[C@@H](NC(=O)OC(C)(C)C)C(C)C)C(C)C)C(=O)C(=O)NCCc1ccccc1` (stereo partly shown) [Compound 412], the half-maximal inhibitory concentration (IC50) worked out at 850 nM.

On to `CC(NC(=O)[C@H](CC(=O)N(C)C)NC(=O)[C@@H](NC(=O)CC(C)(C)C)C(C)(C)C)C(=O)C(=O)NCc1ccc(C(=O)N2CCOCC2)cc1` (stereo partly shown) [Compound 405], for which the IC50 was found to be 500 nM.

As for `CC(NC(=O)[C@@H](CC(=O)[C@@H](NC(=O)CC(C)(C)C)C(C)(C)C)CC(=O)C(C)(C)C)C(=O)C(F)(F)F` (stereo partly shown) [Compound 311], the IC50 turned out to be 6800 nM.

Regarding `C=CCOC(=O)OCCNC(=O)C(=O)C(C)NC(=O)[C@H](CC(=O)N(C)C)NC(=O)[C@@H](NC(=O)CC(C)(C)C)C(C)(C)C` (stereo partly shown) [Compound 401], the IC50 is 590 nM.

Turning to `CC(NC(=O)[C@@H](CC(=O)C(NC(=O)CC(C)(C)C)C(C)(C)C)CC(=O)N(C)C)C(=O)C(F)(F)C(F)(F)F` (mixture of isomers) [Compound 312, N^4,N^4 -Dimethyl-N^1-[1-(R/ S)-methyl-2-oxo-3,3,4,4,4-pentafluorobutyl]-(2S)-2-{3-[(3,3-dimethyl-1-oxobutyl)-amino]-4,4-dimethyl-2-oxopentyl}-butanediamide], the IC50 was determined as 5800 nM.

As to `CCCCC[C@@H](C)NC(=O)C(=O)C(C)NC(=O)[C@H](CC(=O)N(C)C)NC(=O)[C@@H](NC(=O)CC(C)(C)C)C(C)(C)C` (stereo partly shown) [Compound 406], the IC50 worked out at 800 nM.

Take `CC(NC(=O)[C@H](CC(=O)N(C)C)NC(=O)[C@@H](NC(=O)[C@@H](NC(=O)OC(C)(C)C)C(C)C)C(C)C)C(=O)C(=O)NCC1CCCCC1` (stereo partly shown) [Compound 413]: the IC50 stood at 4400 nM.

For the compound `CC(NC(=O)[C@H](CC(=O)N(C)C)NC(=O)[C@@H](NC(=O)[C@@H](N)C(C)C)C(C)C)C(=O)C(=O)NCc1ccc(C(F)(F)F)cc1` (stereo partly shown) [Compound 404], the IC50 was found to be 1700 nM.

With `Cc1ccc(NC(=O)C(=O)C(C)NC(=O)[C@H](CC(=O)N(C)C)NC(=O)[C@@H](NC(=O)[C@@H](NC(=O)OC(C)(C)C)C(C)C)C(C)C)cc1` (stereo partly shown) [Compound 409], the IC50 was determined as 1400 nM.

The target in the next assay is T2, porcine pancreatic elastase (PPE) (Sus scrofa, UniProt P00772).
T2 construct: porcine pancreas elastase #1027891 lot 83260521-23; purchased Boehringer Mannheim #1027891
T2 sequence (P00772 27-266): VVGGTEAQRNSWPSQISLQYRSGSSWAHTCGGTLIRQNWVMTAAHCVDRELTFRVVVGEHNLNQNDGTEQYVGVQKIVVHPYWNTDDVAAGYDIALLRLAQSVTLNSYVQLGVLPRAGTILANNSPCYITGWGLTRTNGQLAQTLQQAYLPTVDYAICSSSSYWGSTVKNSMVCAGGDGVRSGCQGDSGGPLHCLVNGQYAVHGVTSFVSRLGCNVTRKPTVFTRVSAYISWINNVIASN
Briefly: Specificity assay, porcine pancreatic elastase. It is filed as biochemical.
Settings: not given
As for the experimental part: The specificity of the compounds was determined against a variety of serine proteases (Human leukocyte and porcine pancreatic elastases (HLE & PPE), bovine pancreas α-chymotrypsin) and one cysteine protease (Human liver cathepsin B). In all cases a 96-well plate format protocol using a calorimetric p-nitroanilide (pNA) substrate specific for each enzyme was used. Each assay included a 1 hr pre-incubation enzyme-inhibitor at 30° C. followed by addition of substrate and hydrolysis to ≈30% conversion as measured by scanning on a UV Thermomax microplate reader. Substrate concentrations were kept as low as possible compared to KM to reduce substrate competition. […] The final conditions for each assay were as followed: 50 mM Tris/HCl pH 8, 0.5 M Na2 SO4, 50 mM NaCl, 0.1 mM EDTA, 3% DMSO, 0.01% Tween-20 with [100 μM Succ-AAPF-pNA and 250 pM α-chymotrypsin], [133 μM Succ-AAA-pNA and 8 nM porcine elastase], or [133 μM Succ-AAV-pNA and 8 nM leukocyte elastase]. 100 mM NaH2 PO4 pH 6, 0.1 mM EDTA, 3% DMSO, 1 mM TCEP, 0.01% Tween-20, 30 μM Z-FR-pNA and 5 nM cathepsin B (the stock enzyme was activated in buffer containing 20 mM TCEP before use).
With `CC(NC(=O)[C@H](CC(=O)N(C)C)NC(=O)[C@@H](NC(=O)CC(C)(C)C)C(C)(C)C)C(=O)c1nc2ncccc2o1` (stereo partly drawn) [Compound 81, N4,N4-dimethyl-N1-(1-methyl-2-[1,3]oxazolo[4,5-b]pyridin-2-yl-2-oxoethyl)-(2S)-2-{[(1S)-2,2-dimethyl-1-(neopentylcarboxamido)propyl]carboxamido} butanediamide], the “inhibition of PPE” value is “not an inhibitor of PPE”.

Take `CC(NC(=O)[C@H](CC(=O)N(C)C)NC(=O)[C@@H](NC(=O)CC(C)(C)C)C(C)(C)C)C(=O)c1nc2ccccc2o1` (stereo partly drawn) [Compound 77, N1-[2-(1,3-benzoxazol-2-yl)-1-methyl-2-oxoethyl]-N4,N4-dimethyl-(2S)-2-{[(1S)-2,2-dimethyl-1-(neopentylcarboxamido)propyl]carboxamido}butanediamide]: the “potency against PPE relative to HCMV protease” value was “seven fold more potent against PPE than against HCMV protease”.

Staying with this assay, now noted: 1 hr pre-incubation at 30° C., Succ-AAA-pNA; read-out: IC50 against PPE.
With `CC(NC(=O)[C@H](CC(=O)N(C)C)NC(=O)[C@@H](NC(=O)CC(C)(C)C)C(C)(C)C)C(=O)c1nc2ccccc2s1` (stereo partly drawn) [Compound 80, N1-[2-(1,3-benzothiazol-2-yl)-1-methyl-2-oxoethyl]-N4,N4-dimethyl-(2S)-2-{[(1S)-2,2-di-methyl-1-(neopentylcarboxamido)propyl]carboxamido}butanediamide], the IC50 stood at 9000 nM.

These data come from US6291640A, “Peptidomimetic inhibitors of the human cytomegalovirus protease” (Boehringer Ingelheim Ltd., priority 1998, dated 2001).
